Assay results taken from ChEMBL document CHEMBL3045771, “Structure-Activity Relationships of Enantiomers of the Azole Fungicide Ipconazole and Its Related Compounds” (1998).
In brackets after ≈: the same amount, converted by molar mass.

What was measured:
Type in all cases: functional
Botrytis cinerea = assay: Antifungal activity against Botryotinia fuckeliana on potato sucrose agar medium at 28 or 20 degC for 2 or 3 days
[1] = system: Fusarium oxysporum f. sp. cucumerinum; assay: Antifungal activity against Fusarium oxysporum f. sp. cucumerinum on potato sucrose agar medium at 28 or 20 degC for 2 or 3 days
Cucumis sativus = assay: Inhibition of Cucumis sativus (cucumber) growth assessed as stem length of first leaf of seedlings measured as growth rate at 125 ug/ml for 24 hr relative to control; parameters: scale not given: the % may be the effect or the level left
[2] = system: Colletotrichum gloeosporioides; assay: Antifungal activity against Glomerella cingulata on potato sucrose agar medium at 28 or 20 degC for 2 or 3 days
Cercospora beticola = assay: Antifungal activity against Cercospora beticola on potato sucrose agar medium at 28 or 20 degC for 2 or 3 days
Alternaria mali = assay: Antifungal activity against Alternaria mali on potato sucrose agar medium at 28 or 20 degC for 2 or 3 days
Fusarium fujikuroi = assay: Antifungal activity against Fusarium fujikuroi on potato sucrose agar medium at 28 or 20 degC for 2 or 3 days
Bipolaris oryzae = assay: Antifungal activity against Bipolaris oryzae on potato sucrose agar medium at 28 or 20 degC for 2 or 3 days
Pyricularia oryzae = assay: Antifungal activity against Magnaporthe oryzae on potato sucrose agar medium at 28 or 20 degC for 2 or 3 days
Rhizoctonia solani = assay: Antifungal activity against Rhizoctonia solani on potato sucrose agar medium at 28 or 20 degC for 2 or 3 days
Triticum aestivum = assay: Inhibition of Triticum aestivum (wheat) Nourin 64 growth assessed as first leaf sheath length of seedlings measured as growth rate at 125 ug/ml for 24 hr relative to control; parameters: scale not given: the % may be the effect or the level left
Monilinia fructicola = assay: Antifungal activity against Monilinia fructicola on potato sucrose agar medium at 28 or 20 degC for 2 or 3 days
Sclerotinia sclerotiorum = assay: Antifungal activity against Sclerotinia sclerotiorum on potato sucrose agar medium at 28 or 20 degC for 2 or 3 days
Colletotrichum lagenaria = assay: Antifungal activity against Colletotrichum lagenaria on potato sucrose agar medium at 28 or 20 degC for 2 or 3 days

Row | Compound | MIC (Botrytis cinerea) [mg/L] | MIC [1] [mg/L] | Activity (Cucumis sativus) [%] | MIC [2] [mg/L] | MIC (Cercospora beticola) [mg/L] | MIC (Alternaria mali) [mg/L] | MIC (Fusarium fujikuroi) [mg/L] | MIC (Bipolaris oryzae) [mg/L] | MIC (Pyricularia oryzae) [mg/L] | MIC (Rhizoctonia solani) [mg/L] | Activity (Triticum aestivum) [%] | MIC (Monilinia fructicola) [mg/L] | MIC (Sclerotinia sclerotiorum) [mg/L] | MIC (Colletotrichum lagenaria) [mg/L]
1 | C[C@@H]1CC[C@H](Cc2ccc(Cl)cc2)[C@@]1(O)Cn1cncn1 | 3.1 (≈ 10.1 µM) | > 100 | 43 | 13 (≈ 42.5 µM) | > 100 | > 100 | 3.1 (≈ 10.1 µM) | 25 (≈ 81.8 µM) | 3.1 (≈ 10.1 µM) | > 100 | 38 | < 0.2 | 3.1 (≈ 10.1 µM) | 100 (≈ 327 µM)
2 | CC(C)[C@H]1CC[C@H](Cc2ccc(Cl)cc2)[C@@]1(O)Cn1cncn1 | 0.4 (≈ 1.2 µM) | 0.4 (≈ 1.2 µM) | 113 | 0.4 (≈ 1.2 µM) | 13 (≈ 38.9 µM) | 3.1 (≈ 9.29 µM) | 0.2 (≈ 0.599 µM) | 13 (≈ 38.9 µM) | 1.6 (≈ 4.79 µM) | 100 (≈ 300 µM) | 96 | < 0.2 | 0.8 (≈ 2.4 µM) | < 0.2
3 | CC[C@@H]1CC[C@H](Cc2ccc(Cl)cc2)[C@@]1(O)Cn1cncn1 | 0.8 (≈ 2.5 µM) | 6.3 (≈ 19.7 µM) | 100 | 0.4 (≈ 1.25 µM) | 50 (≈ 156 µM) | 25 (≈ 78.2 µM) | < 0.2 | 25 (≈ 78.2 µM) | 3.1 (≈ 9.69 µM) | 100 (≈ 313 µM) | 104 | < 0.2 | 0.8 (≈ 2.5 µM) | 1.6 (≈ 5 µM)
4 | CC(C)C[C@H]1CC[C@@H](Cc2ccc(Cl)cc2)[C@]1(O)Cn1cncn1 | > 100 | > 100 | 104 | > 100 | > 100 | > 100 | > 100 | > 100 | 100 (≈ 287 µM) | > 100 | 115 | > 100 | > 100 | > 100
5 | CCCC[C@@H]1CC[C@H](Cc2ccc(Cl)cc2)[C@@]1(O)Cn1cncn1 | 3.1 (≈ 8.91 µM) | 50 (≈ 144 µM) | 121 | 6.3 (≈ 18.1 µM) | > 100 | > 100 | 3.1 (≈ 8.91 µM) | 25 (≈ 71.9 µM) | 6.3 (≈ 18.1 µM) | 100 (≈ 287 µM) | 98 | 6.3 (≈ 18.1 µM) | 3.1 (≈ 8.91 µM) | > 100
6 | CC(C)C[C@@H]1CC[C@H](Cc2ccc(Cl)cc2)[C@@]1(O)Cn1cncn1 | 1.6 (≈ 4.6 µM) | > 100 | 109 | 3.1 (≈ 8.91 µM) | > 100 | > 100 | 3.1 (≈ 8.91 µM) | 50 (≈ 144 µM) | 6.3 (≈ 18.1 µM) | > 100 | 112 | 3.1 (≈ 8.91 µM) | 3.1 (≈ 8.91 µM) | 100 (≈ 287 µM)
7 | CC[C@@H]1CC[C@@H](Cc2ccc(Cl)cc2)[C@]1(O)Cn1cncn1 | 13 (≈ 40.6 µM) | > 100 | 110 | 13 (≈ 40.6 µM) | 50 (≈ 156 µM) | 100 (≈ 313 µM) | 25 (≈ 78.2 µM) | 25 (≈ 78.2 µM) | 13 (≈ 40.6 µM) | 100 (≈ 313 µM) | 69 | 0.4 (≈ 1.25 µM) | 25 (≈ 78.2 µM) | 100 (≈ 313 µM)
8 | CCCC[C@H]1CC[C@@H](Cc2ccc(Cl)cc2)[C@]1(O)Cn1cncn1 | > 100 | > 100 | 117 | > 100 | > 100 | > 100 | > 100 | > 100 | 25 (≈ 71.9 µM) | 100 (≈ 287 µM) | 112 | 50 (≈ 144 µM) | > 100 | > 100
9 | CC[C@H]1CC[C@H](Cc2ccc(Cl)cc2)[C@@]1(O)Cn1cncn1 | < 0.2 | 1.6 (≈ 5 µM) | 123 | < 0.2 | 1.6 (≈ 5 µM) | 1.6 (≈ 5 µM) | < 0.2 | 6.3 (≈ 19.7 µM) | 1.6 (≈ 5 µM) | 50 (≈ 156 µM) | 100 | < 0.2 | < 0.2 | 3.1 (≈ 9.69 µM)
10 | CC[C@H]1CC[C@@H](Cc2ccc(Cl)cc2)[C@]1(O)Cn1cncn1 | 25 (≈ 78.2 µM) | > 100 | 98 | 25 (≈ 78.2 µM) | > 100 | > 100 | > 100 | 50 (≈ 156 µM) | 25 (≈ 78.2 µM) | 100 (≈ 313 µM) | 77 | 1.6 (≈ 5 µM) | 100 (≈ 313 µM) | 50 (≈ 156 µM)
11 | O[C@@]1(Cn2cncn2)CCC[C@H]1Cc1ccc(Cl)cc1 | > 100 | > 100 | 90 | > 100 | > 100 | > 100 | > 100 | > 100 | 100 (≈ 343 µM) | > 100 | 94 | 13 (≈ 44.6 µM) | > 100 | > 100
12 | CCC[C@@H]1CC[C@H](Cc2ccc(Cl)cc2)[C@@]1(O)Cn1cncn1 | 1.6 (≈ 4.79 µM) | 6.3 (≈ 18.9 µM) | 110 | 3.1 (≈ 9.29 µM) | 100 (≈ 300 µM) | > 100 | 1.6 (≈ 4.79 µM) | 25 (≈ 74.9 µM) | 6.3 (≈ 18.9 µM) | 100 (≈ 300 µM) | 102 | 0.4 (≈ 1.2 µM) | 3.1 (≈ 9.29 µM) | 50 (≈ 150 µM)
13 | CC(C)[C@H]1CC[C@@H](Cc2ccc(Cl)cc2)[C@]1(O)Cn1cncn1 | 25 (≈ 74.9 µM) | > 100 | 117 | 25 (≈ 74.9 µM) | > 100 | > 100 | > 100 | 50 (≈ 150 µM) | 100 (≈ 300 µM) | 100 (≈ 300 µM) | 109 | < 0.2 | 50 (≈ 150 µM) | > 100
14 | CCC[C@H]1CC[C@@H](Cc2ccc(Cl)cc2)[C@]1(O)Cn1cncn1 | 50 (≈ 150 µM) | > 100 | 104 | > 100 | > 100 | > 100 | > 100 | 100 (≈ 300 µM) | 50 (≈ 150 µM) | 100 (≈ 300 µM) | 97 | 13 (≈ 38.9 µM) | > 100 | > 100
15 | CC(C)[C@@H]1CC[C@@H](Cc2ccc(Cl)cc2)[C@]1(O)Cn1cncn1 | 25 (≈ 74.9 µM) | > 100 | 104 | 25 (≈ 74.9 µM) | > 100 | > 100 | > 100 | 50 (≈ 150 µM) | 13 (≈ 38.9 µM) | > 100 | 92 | < 0.2 | > 100 | 50 (≈ 150 µM)
16 | CC(C)[C@@H]1CC[C@H](Cc2ccc(Cl)cc2)[C@@]1(O)Cn1cncn1 | 0.2 (≈ 0.599 µM) | 3.1 (≈ 9.29 µM) | 118 | 1.6 (≈ 4.79 µM) | 25 (≈ 74.9 µM) | 6.3 (≈ 18.9 µM) | 0.2 (≈ 0.599 µM) | 13 (≈ 38.9 µM) | 3.1 (≈ 9.29 µM) | 13 (≈ 38.9 µM) | 105 | < 0.2 | < 0.2 | 0.8 (≈ 2.4 µM)
17 | O[C@]1(Cn2cncn2)CCC[C@@H]1Cc1ccc(Cl)cc1 | 3.1 (≈ 10.6 µM) | > 100 | 80 | 25 (≈ 85.7 µM) | > 100 | > 100 | 13 (≈ 44.6 µM) | 25 (≈ 85.7 µM) | 6.3 (≈ 21.6 µM) | > 100 | 41 | < 0.2 | 13 (≈ 44.6 µM) | > 100
18 | C[C@H]1CC[C@@H](Cc2ccc(Cl)cc2)[C@]1(O)Cn1cncn1 | 100 (≈ 327 µM) | > 100 | 97 | > 100 | > 100 | > 100 | > 100 | > 100 | 50 (≈ 164 µM) | > 100 | 92 | 13 (≈ 42.5 µM) | > 100 | > 100
